Test results reported in paper PMC4618636 (Pharmacology Research & Perspectives, 2015).
Read-outs that look alike come from different tables or passages of the source.

Assays:
CYP1A2 [1] = molecular target: T1, CYP1A2 (Homo sapiens, UniProt P05177); experiment: CYP1A2 inhibition in upcyte hepatocytes over 24 h; format: in vitro ADME; conditions: probe phenacetin (5 μmol/L), percentage inhibition, CYP1A2, APAP, 1 mmol/L ABT, Lab 2
T1 sequence (P05177 1-516): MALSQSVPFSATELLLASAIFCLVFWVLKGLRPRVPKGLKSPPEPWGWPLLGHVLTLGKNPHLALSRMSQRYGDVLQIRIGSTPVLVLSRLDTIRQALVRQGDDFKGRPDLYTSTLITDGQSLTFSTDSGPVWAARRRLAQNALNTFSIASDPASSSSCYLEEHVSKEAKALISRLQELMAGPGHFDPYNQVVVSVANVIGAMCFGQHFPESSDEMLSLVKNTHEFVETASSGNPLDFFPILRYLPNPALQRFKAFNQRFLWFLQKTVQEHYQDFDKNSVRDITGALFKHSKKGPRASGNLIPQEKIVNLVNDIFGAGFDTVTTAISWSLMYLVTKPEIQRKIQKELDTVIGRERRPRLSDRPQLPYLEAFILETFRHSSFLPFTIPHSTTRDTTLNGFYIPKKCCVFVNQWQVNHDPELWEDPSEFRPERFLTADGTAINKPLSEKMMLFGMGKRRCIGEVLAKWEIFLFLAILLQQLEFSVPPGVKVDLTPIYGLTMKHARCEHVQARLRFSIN

CYP2B6 [2] = molecular target: T2, CYP2B6 (Homo sapiens, UniProt P20813); experiment: in vitro; conditions: hepatocytes, percentage inhibition, CYP2B6, OH-Bup, 1 mmol/L ABT, Lab 2
T2 sequence (P20813 1-491): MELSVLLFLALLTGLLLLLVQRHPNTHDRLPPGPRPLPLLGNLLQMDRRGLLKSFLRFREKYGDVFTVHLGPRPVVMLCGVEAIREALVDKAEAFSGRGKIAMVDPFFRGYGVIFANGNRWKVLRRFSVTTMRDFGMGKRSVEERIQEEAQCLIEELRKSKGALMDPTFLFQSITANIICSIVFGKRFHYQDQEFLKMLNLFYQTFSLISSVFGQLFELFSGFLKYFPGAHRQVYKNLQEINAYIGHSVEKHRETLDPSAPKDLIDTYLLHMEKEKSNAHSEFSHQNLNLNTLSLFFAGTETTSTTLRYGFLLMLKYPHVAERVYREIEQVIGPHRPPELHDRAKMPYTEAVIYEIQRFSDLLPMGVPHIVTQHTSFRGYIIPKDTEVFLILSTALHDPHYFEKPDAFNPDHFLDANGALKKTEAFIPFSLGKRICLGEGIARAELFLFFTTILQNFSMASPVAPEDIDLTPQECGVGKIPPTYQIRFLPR

CYP3A4 [3] = molecular target: CYP3A4 (Homo sapiens, UniProt P08684); experiment: in vitro; conditions: upcyte hepatocytes, probe midazolam (5 μmol/L), percentage inhibition, CYP3A4, 1′OH-MID +1′OH-MID-G, 1 mmol/L ABT, Lab 2
CYP2C9 = CYP2C9 (Homo sapiens, UniProt P11712); experiment: CYP2C9 inhibition in upcyte hepatocytes over 24 h; format: in vitro ADME; conditions: probe tolbutamide (5 μmol/L), percentage inhibition, CYP2C9, OH-Tolb, 1 mmol/L ABT, Lab 2
CYP3A4 [4] = conditions: in vivo induction value used for the RIS calibration; cited from earlier work
CYP2B6 [5] = conditions: for CYP2B6 Indmax: mean from two experiments; for CYP2B6 % PB: relative to positive control phenobarbital, equation 2
CYP3A4 [6] = conditions: for CYP3A4 Indmax: mean from two experiments; for CYP3A4 % Rif: relative to positive control rifampicin, equation 2
CYP1A2 [7] = experiment: CYP1A2 preinduction by omeprazole in upcyte hepatocytes; conditions: daily 100 μmol/L omeprazole for 3 days

Sequence of CYP3A4 (Homo sapiens, UniProt P08684) (P08684 whole entry): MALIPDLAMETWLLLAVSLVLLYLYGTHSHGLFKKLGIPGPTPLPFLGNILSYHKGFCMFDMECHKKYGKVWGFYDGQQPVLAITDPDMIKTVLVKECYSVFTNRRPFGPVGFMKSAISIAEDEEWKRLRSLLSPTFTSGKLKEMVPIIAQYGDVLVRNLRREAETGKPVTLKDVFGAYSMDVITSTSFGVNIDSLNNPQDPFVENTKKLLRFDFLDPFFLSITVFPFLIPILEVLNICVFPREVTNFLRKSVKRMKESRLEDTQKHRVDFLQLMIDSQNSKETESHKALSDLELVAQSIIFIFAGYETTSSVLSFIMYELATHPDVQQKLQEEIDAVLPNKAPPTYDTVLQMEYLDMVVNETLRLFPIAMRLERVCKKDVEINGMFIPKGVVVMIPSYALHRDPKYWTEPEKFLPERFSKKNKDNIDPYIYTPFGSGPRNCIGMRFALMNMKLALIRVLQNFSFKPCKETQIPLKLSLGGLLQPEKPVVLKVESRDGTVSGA
Sequence of CYP2C9 (P11712 whole entry): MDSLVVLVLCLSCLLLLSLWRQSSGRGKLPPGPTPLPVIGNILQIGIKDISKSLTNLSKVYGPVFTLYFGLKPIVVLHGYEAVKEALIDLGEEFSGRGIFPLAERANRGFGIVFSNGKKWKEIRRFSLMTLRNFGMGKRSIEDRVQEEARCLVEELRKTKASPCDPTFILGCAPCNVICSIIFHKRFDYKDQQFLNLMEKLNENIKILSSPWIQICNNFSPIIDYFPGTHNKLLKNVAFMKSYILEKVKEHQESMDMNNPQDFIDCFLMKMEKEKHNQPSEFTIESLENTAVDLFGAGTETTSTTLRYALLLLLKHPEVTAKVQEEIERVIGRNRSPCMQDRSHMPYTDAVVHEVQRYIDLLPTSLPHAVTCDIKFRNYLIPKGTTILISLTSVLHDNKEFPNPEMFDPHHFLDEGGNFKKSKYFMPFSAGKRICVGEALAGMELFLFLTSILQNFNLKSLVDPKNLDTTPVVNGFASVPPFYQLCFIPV

In the case of `Nn1nnc2ccccc21` [ABT, 1-aminobenzotriazole], the inhibition at 1 mmol/L (CYP1A2 [1]; Donor 151-03, 0–6 h) was 100%, the inhibition at 24 h, 1 mmol/L (CYP1A2 [1]; Donor 151-03, 24 h) was 100% and the inhibition at 1 mmol/L (CYP1A2 [1]; Donor 422A-03, 0–6 h) was 100%. For the same compound, the inhibition at 24 h, 1 mmol/L (CYP1A2 [1]; Donor 422A-03, 24 h) was 98%, the inhibition at 1 mmol/L (CYP1A2 [1]; Donor 653-03, 0–6 h) was 95% and the inhibition at 24 h, 1 mmol/L (CYP1A2 [1]; Donor 653-03, 24 h) was 96%. The inhibition at 1 mmol/L (CYP2B6 [2]; Donor 151-03, 0–6 h) was 85%, the inhibition at 24 h, 1 mmol/L (CYP2B6 [2]; Donor 151-03, 24 h) was 94% and the inhibition at 1 mmol/L (CYP2B6 [2]; Donor 422A-03, 0–6 h) was 90%. It also gave an inhibition at 24 h, 1 mmol/L (CYP2B6 [2]; Donor 422A-03, 24 h) of 94%, an inhibition at 1 mmol/L (CYP2B6 [2]; Donor 653-03, 0–6 h) of 94% and an inhibition at 24 h, 1 mmol/L (CYP2B6 [2]; Donor 653-03, 24 h) of 97%. For the same compound, the inhibition at 1 mmol/L (CYP3A4 [3]; Donor 151-03, 0–6 h) was 99%, the inhibition at 24 h, 1 mmol/L (CYP3A4 [3]; Donor 151-03, 24 h) was 97% and the inhibition at 1 mmol/L (CYP3A4 [3]; Donor 422A-03, 0–6 h) was 98%. It also gave an inhibition at 24 h, 1 mmol/L (CYP3A4 [3]; Donor 422A-03, 24 h) of 98%, an inhibition at 1 mmol/L (CYP3A4 [3]; Donor 653-03, 0–6 h) of 98% and an inhibition at 24 h, 1 mmol/L (CYP3A4 [3]; Donor 653-03, 24 h) of 98%. It also gave an inhibition at 1 mmol/L (CYP2C9; Donor 151-03, 0–6 h) of 100%, an inhibition at 24 h, 1 mmol/L (CYP2C9; Donor 151-03, 24 h) of 98% and an inhibition at 1 mmol/L (CYP2C9; Donor 422A-03, 0–6 h) of 100%. For the same compound, the inhibition at 24 h, 1 mmol/L (CYP2C9; Donor 422A-03, 24 h) was 100%, the inhibition at 1 mmol/L (CYP2C9; Donor 653-03, 0–6 h) was 95% and the inhibition at 24 h, 1 mmol/L (CYP2C9; Donor 653-03, 24 h) was 99%.
In the case of `COc1ccc2[nH]c([S+]([O-])Cc3ncc(C)c(OC)c3C)nc2c1` (stereo not shown) [Omeprazole, omeprazole], the “% Decrease in midazolam AUC” value (CYP3A4 [4]) is given as 0%, the “CYP2B6 Indmax” value (CYP2B6 [5]; upcyte Donor 10-03) is given as 2.0 fold and the “CYP2B6 % PB” value (CYP2B6 [5]; upcyte Donor 10-03) is given as 31%. For the same compound, the “CYP2B6 Indmax” value (CYP2B6 [5]; upcyte Donor 151-03) was “No induction”, the “CYP2B6 % PB” value (CYP2B6 [5]; upcyte Donor 151-03) was “No induction” and the “CYP2B6 Indmax” value (CYP2B6 [5]; upcyte Donor 653-03) was 2.2 fold. The “CYP2B6 % PB” value (CYP2B6 [5]; upcyte Donor 653-03) was 56%, the “CYP3A4 Indmax” value (CYP3A4 [6]; upcyte Donor 10-03) was 2.3 fold and the “CYP3A4 % Rif” value (CYP3A4 [6]; upcyte Donor 10-03) was 4%. For the same compound, the “CYP3A4 Indmax” value (CYP3A4 [6]; upcyte Donor 151-03) was 3.1 fold, the “CYP3A4 % Rif” value (CYP3A4 [6]; upcyte Donor 151-03) was 34% and the “CYP3A4 Ind50” value (CYP3A4 [6]; upcyte Donor 653-03, column headed Ind50 in Table 5) was 5. For the same compound, the “CYP3A4 Indmax” value (CYP3A4 [6]; upcyte Donor 653-03) was 1.5 fold, the “induced CYP1A2 activity” value (CYP1A2 [7]; Donor 10-03) was 57.1 ± 17.1 pmol/min/mg protein and the “induced CYP1A2 activity” value (CYP1A2 [7]; Donor 151-03) was 83.8 ± 21.7 pmol/min/mg protein. The “induced CYP1A2 activity” value (CYP1A2 [7]; Donor 422A-03) was 205.0 ± 44.9 pmol/min/mg protein.
